Common to all, as to assay type: in vivo
The subject of data set [1] is wheat. The data set can be described thus: Test Example 4: effect on crop by soil treatment (symbol e). To be noted: for e: wheat, effect on crop grade: application herbicide amount 320 g/ha. A digest of the protocol:
(§1)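 Seeds were sown in spots on sterilized diluvial soil in a plastic box and covered with about 1.5 cm of soil. Plants were then grown in a greenhouse at 25° C. to 30° C.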

For data set [2], the system named is Galium spurium. Nature of the data set: Test Example 5: herbicidal effect by foliage application, plastic box (symbol Q). To be noted: 320 g/ha, 3 weeks after application. The method, boiled down:
(§2)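 After sowing into sterilized diluvial soil and growing two weeks under glass at 25° C. to 30° C., seedlings receive a uniform foliar spray of diluted emulsion. Damage is judged visually three weeks on.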

Data set [3] has as its system Alopecurus myosuroides. The data set can be described thus: Test Example 5: herbicidal effect by foliage application, plastic box (symbol J). To be noted: 320 g/ha, 3 weeks after application. The method, boiled down: as §2
The test system of data set [4] is soybean. Nature of the data set: Test Example 4: effect on crop by soil treatment (symbol d). Particulars: for d: soybean, effect on crop grade: application herbicide amount 320 g/ha. A digest of the protocol: as §1
For data set [5], the system named is Lolium multiflorum Lam. The data set can be described thus: Test Example 5: herbicidal effect by foliage application, plastic box (symbol K). Particulars: 320 g/ha, 3 weeks after application. The method, boiled down: as §2
The subject of data set [6] is Alopecurus myosuroides. Nature of the data set: Test Example 4: herbicidal effect by soil treatment (symbol J). A digest of the protocol: (§3)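 Seeds were sown in sterilized diluvial soil, covered with about 1.5 cm of soil, and the soil surface was sprayed with a water-diluted emulsion of the compound at a predetermined rate. Plants grew in a greenhouse at 25° C. to 30° C.; effects were scored visually 3 weeks after application.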

The test system of data set [7] is Stellaria media. Nature of the data set: Test Example 4: herbicidal effect by soil treatment (symbol P). A digest of the protocol:
as §3

For data set [8], the system named is Setaria viridis. Nature of the data set: Test Example 5: herbicidal effect by foliage application, plastic box (symbol G). To be noted: 320 g/ha, 3 weeks after application. A digest of the protocol:
as §2

The test system of data set [9] is Cyperus difformis. Nature of the data set: Test Example 3: herbicidal effect by foliage application, Wagner pot (symbol E). Particulars: application herbicide amount 320 g/ha. The method, boiled down: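 Seeds sown in alluvial soil kept under 0.1–0.5 cm water, greenhouse 25–30 °C; 14 d growth. Leaves treated by small sprayer with water-diluted emulsion at a predetermined rate. Effect graded by set scale, 3 weeks.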

For data set [10], the system named is corn. Nature of the data set: Test Example 4: effect on crop by soil treatment (symbol c). Particulars: for c: corn, effect on crop grade: application herbicide amount 320 g/ha. A digest of the protocol: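 Steps: fill box with sterilized diluvial soil; sow seed spot-like; cover with ~1.5 cm soil; grow in greenhouse (25° C. to 30° C.).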
Data set [11] deals with rice. Nature of the data set: Test Example 4: effect on crop by soil treatment (symbol b). To be noted: for b: directly sowed rice plant, effect on crop grade: application herbicide amount 320 g/ha. The method, boiled down: as §1
Data set [12] concerns Echinochloa oryzacola Vasing. Nature of the data set: Test Example 1: herbicidal activity, application before weed generation in submerged conditions (symbol A). To be noted: application herbicide amount 320 g/ha. A digest of the protocol:
(§4)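 Weeds are sown into submerged alluvial soil alongside transplanted 2.5-leaf rice, and the compound, as an emulsion diluted to a set rate, is applied onto the water before emergence. Rating on the 0–5 herbicidal-ratio scale follows 3 weeks of greenhouse growth at 25–30 °C.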

For data set [13], the system named is Scirpus juncoides. Nature of the data set: Test Example 1: herbicidal activity, application before weed generation in submerged conditions (symbol B). To be noted: application herbicide amount 320 g/ha. A digest of the protocol:
as §4

The test system of data set [14] is transplanted rice plant. The data set can be described thus: Test Example 1: effect on crop, application before weed generation in submerged conditions (symbol a). Particulars: application herbicide amount 320 g/ha. The method, boiled down: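 Alluvial soil pots flooded to 4 cm water, sown with Echinochloa oryzacola, Scirpus juncoides and Monochoria vaginalis, then transplanted with 2.5 leaf stage rice seedlings; pre-emergence application. Greenhouse 25° C. to 30° C.; scored 0–5 by herbicidal ratio 3 weeks after application.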

The mark [15] stands for this setting: application herbicide amount 320 g/ha.

Molecules are shown by their SMILES.

Consider `CC#Cc1cc(C)c(C2=C(O)CC(CC(C)=NOC)C2=O)c(CC)c1` (mixture of isomers) [6-006], for which, in data set [1], the “e: wheat, effect on crop grade” value is on record as 5 (Herbicidal ratio of 90% or more (almost completely withered)). The “Q: Galium spurium, herbicidal effect grade” value in data set [2] is recorded as 0 (Herbicidal ratio of 5% or lower (almost no effect)). In addition, the “J: Alopecurus myosuroides, herbicidal effect grade” value in data set [3] and in data set [6] (setting [15]) was 5 (Herbicidal ratio of 90% or more (almost completely withered)) in each case. Also, in data set [4], the “d: soybean, effect on crop grade” value is 0 (Herbicidal ratio of 5% or lower (almost no effect)). In addition, the “K: Lolium multiflorum Lam., herbicidal effect grade” value in [5] was 4 (Herbicidal ratio of 70% or higher and lower than 90%). Besides, in data set [7] (setting [15]), the “P: Stellaria media, herbicidal effect grade” value (from here on “P: Stellaria media”) was 0 (Herbicidal ratio of 5% or lower (almost no effect)). In addition, in data set [8], the “G: Setaria viridis, herbicidal effect grade” value was 3 (Herbicidal ratio of 40% or higher and lower than 70%). In addition, in [9], the “herbicidal effect on E, grade 0-5” value is reported as 5 (Herbicidal ratio of 90% or more (almost completely withered)). For the same compound, the “c: corn, effect on crop grade” value in data set [10] is given as 5 (Herbicidal ratio of 90% or more (almost completely withered)). Moreover, the “b: directly sowed rice plant, effect on crop grade” value in [11] is reported as 5 (Herbicidal ratio of 90% or more (almost completely withered)). The “Herbicidal effect grade, A: Echinochloa oryzacola Vasing.” value in data set [12] is 5 (Herbicidal ratio of 90% or more (almost completely withered)). The “Herbicidal effect grade, B: Scirpus juncoides” value (“Herbicidal effect grade, B” for short) in data set [13] is on record as 5 (Herbicidal ratio of 90% or more (almost completely withered)). Besides, in [14], the “Effect grade on crop, a: transplanted rice plant” value is 5 (Herbicidal ratio of 90% or more (almost completely withered)).

Consider `CC#Cc1cc(C)c(C2=C(O)CC(CC(C)=NOC)C2=O)c(C)c1` (mixture of isomers) [6-009], for which the “e: wheat, effect on crop grade” value in data set [1] is given as 5 (Herbicidal ratio of 90% or more (almost completely withered)). Also, the “Q: Galium spurium, herbicidal effect grade” value in data set [2] is reported as 0 (Herbicidal ratio of 5% or lower (almost no effect)). Moreover, the “J: Alopecurus myosuroides, herbicidal effect grade” value in data set [3] and in [6] (setting [15]) was 5 (Herbicidal ratio of 90% or more (almost completely withered)) throughout. Also, the “d: soybean, effect on crop grade” value in data set [4] is reported as 0 (Herbicidal ratio of 5% or lower (almost no effect)). The “K: Lolium multiflorum Lam., herbicidal effect grade” value in [5] is 5 (Herbicidal ratio of 90% or more (almost completely withered)). Moreover, the “P: Stellaria media” value in data set [7] (setting [15]) is 4 (Herbicidal ratio of 70% or higher and lower than 90%). In [8], the “G: Setaria viridis, herbicidal effect grade” value is given as 5 (Herbicidal ratio of 90% or more (almost completely withered)). Further, the “herbicidal effect on E, grade 0-5” value in data set [9] is 0 (Herbicidal ratio of 5% or lower (almost no effect)). For the same compound, the “c: corn, effect on crop grade” value in data set [10] was 5 (Herbicidal ratio of 90% or more (almost completely withered)). Besides, the “b: directly sowed rice plant, effect on crop grade” value in [11] is 5 (Herbicidal ratio of 90% or more (almost completely withered)). Moreover, the “Herbicidal effect grade, A: Echinochloa oryzacola Vasing.” value in [12] is reported as 5 (Herbicidal ratio of 90% or more (almost completely withered)). Moreover, the “Herbicidal effect grade, B” value in [13] is 2 (Herbicidal ratio of 20% or higher and lower than 40%). Further, in data set [14], the “Effect grade on crop, a: transplanted rice plant” value was 3 (Herbicidal ratio of 40% or higher and lower than 70%).

Consider `CON=C(C)CC1CC(O)=C(c2c(C)cc(C#CC3CC3)cc2C)C1=O` (mixture of isomers) [6-010], for which, in data set [1], the “e: wheat, effect on crop grade” value is 4 (Herbicidal ratio of 70% or higher and lower than 90%). The “Q: Galium spurium, herbicidal effect grade” value in data set [2] is 0 (Herbicidal ratio of 5% or lower (almost no effect)). The “J: Alopecurus myosuroides, herbicidal effect grade” value in data set [3] and in data set [6] (setting [15]) was 5 (Herbicidal ratio of 90% or more (almost completely withered)) throughout. The “d: soybean, effect on crop grade” value in data set [4] is listed as 0 (Herbicidal ratio of 5% or lower (almost no effect)). For the same compound, the “K: Lolium multiflorum Lam., herbicidal effect grade” value in data set [5] is 4 (Herbicidal ratio of 70% or higher and lower than 90%). The “P: Stellaria media” value in data set [7] (setting [15]) is on record as 0 (Herbicidal ratio of 5% or lower (almost no effect)). The “G: Setaria viridis, herbicidal effect grade” value in [8] was 5 (Herbicidal ratio of 90% or more (almost completely withered)). Besides, in data set [9], the “herbicidal effect on E, grade 0-5” value is recorded as 5 (Herbicidal ratio of 90% or more (almost completely withered)). The “c: corn, effect on crop grade” value in data set [10] was 4 (Herbicidal ratio of 70% or higher and lower than 90%). In addition, the “b: directly sowed rice plant, effect on crop grade” value in data set [11] was 5 (Herbicidal ratio of 90% or more (almost completely withered)). Besides, the “Herbicidal effect grade, A: Echinochloa oryzacola Vasing.” value in data set [12] was 5 (Herbicidal ratio of 90% or more (almost completely withered)). Besides, in data set [13], the “Herbicidal effect grade, B” value was 4 (Herbicidal ratio of 70% or higher and lower than 90%). In data set [14], the “Effect grade on crop, a: transplanted rice plant” value is 5 (Herbicidal ratio of 90% or more (almost completely withered)).

`CON=C(C)CC1CC(O)=C(c2c(C)cc(-c3cccc(Cl)c3)cc2C)C1=O` (mixture of isomers) [6-034]: the “e: wheat, effect on crop grade” value in [1] is 0 (Herbicidal ratio of 5% or lower (almost no effect)). For the same compound, the “Q: Galium spurium, herbicidal effect grade” value in [2] is 5 (Herbicidal ratio of 90% or more (almost completely withered)). The “J: Alopecurus myosuroides, herbicidal effect grade” value in [3] and in [6] (setting [15]) was 5 (Herbicidal ratio of 90% or more (almost completely withered)) throughout. In addition, the “d: soybean, effect on crop grade” value in [4] was 0 (Herbicidal ratio of 5% or lower (almost no effect)). Further, in [5], the “K: Lolium multiflorum Lam., herbicidal effect grade” value is 4 (Herbicidal ratio of 70% or higher and lower than 90%). For the same compound, the “P: Stellaria media” value in data set [7] (setting [15]) was 0 (Herbicidal ratio of 5% or lower (almost no effect)). The “G: Setaria viridis, herbicidal effect grade” value in [8] is reported as 5 (Herbicidal ratio of 90% or more (almost completely withered)). Also, the “herbicidal effect on E, grade 0-5” value in data set [9] is 4 (Herbicidal ratio of 70% or higher and lower than 90%). The “c: corn, effect on crop grade” value in data set [10] was 1 (Herbicidal ratio of 5% or higher and lower than 20%). Moreover, in [11], the “b: directly sowed rice plant, effect on crop grade” value was 2 (Herbicidal ratio of 20% or higher and lower than 40%). Besides, the “Herbicidal effect grade, A: Echinochloa oryzacola Vasing.” value in [12] is 5 (Herbicidal ratio of 90% or more (almost completely withered)). Also, in [13], the “Herbicidal effect grade, B” value is 5 (Herbicidal ratio of 90% or more (almost completely withered)). Moreover, the “Effect grade on crop, a: transplanted rice plant” value in data set [14] was 5 (Herbicidal ratio of 90% or more (almost completely withered)).

Regarding `CON=C(C)CC1CC(OC(=O)c2ccc(C(F)(F)F)cc2)=C(c2c(C)cc(C)cc2C)C1=O` (stereo not shown) [1-149], the “e: wheat, effect grade on crop” value in data set [1] (320 g/ha) is 5 (Herbicidal ratio of 90% or more (almost completely withered)). Moreover, the “Q: Galium spurium, herbicidal effect (criteria 0-5)” value in data set [2] is 3 (Herbicidal ratio of 40% or higher and lower than 70%). Further, in [3], the “J: Alopecurus myosuroides, herbicidal effect (criteria 0-5)” value was 5 (Herbicidal ratio of 90% or more (almost completely withered)). In addition, the “d: soybean, effect grade on crop” value in data set [4] (320 g/ha) is 0 (Herbicidal ratio of 5% or lower (almost no effect)). For the same compound, in data set [5], the “K: Lolium multiflorum Lam., herbicidal effect (criteria 0-5)” value is 5 (Herbicidal ratio of 90% or more (almost completely withered)). Further, the “J: Alopecurus myosuroides, herbicidal effect grade” value in data set [6] (320 g/ha) is 5 (Herbicidal ratio of 90% or more (almost completely withered)). Further, the “P: Stellaria media” value in data set [7] (320 g/ha) was 0 (Herbicidal ratio of 5% or lower (almost no effect)). Further, the “G: Setaria viridis, herbicidal effect (criteria 0-5)” value in [8] is recorded as 5 (Herbicidal ratio of 90% or more (almost completely withered)). The “herbicidal effect on E, grade 0-5” value in data set [9] is reported as 5 (Herbicidal ratio of 90% or more (almost completely withered)). In addition, in data set [10] (320 g/ha), the “c: corn, effect grade on crop” value was 2 (Herbicidal ratio of 20% or higher and lower than 40%). For the same compound, in data set [11] (320 g/ha), the “b: directly sowed rice plant, effect grade on crop” value is reported as 5 (Herbicidal ratio of 90% or more (almost completely withered)). Besides, the “Herbicidal effect grade, A: Echinochloa oryzacola Vasing.” value in data set [12] was 5 (Herbicidal ratio of 90% or more (almost completely withered)). The “Herbicidal effect grade, B” value in data set [13] is on record as 5 (Herbicidal ratio of 90% or more (almost completely withered)). The “Effect grade on crop, a: transplanted rice plant” value in data set [14] was 5 (Herbicidal ratio of 90% or more (almost completely withered)).

For the origin of these results see patent US11000033B2, “Ketone or oxime compound, and herbicide” (NISSAN CHEMICAL CORPORATION, priority 2014, dated 2021).
